What all share (test): relative viability (nuclei count vs DMSO), 5 days (fraction); higher = more cells survive
Compound in test [1]: CN1CCN(CC1)C2=CC(=C(C=C2)NC3=NC(=C(S3)C(=O)C4=C(C=CC=C4Cl)Cl)N)OC [XMD14-99] + CS(=O)(=O)CCNCc1ccc(-c2ccc3ncnc(Nc4ccc(OCc5cccc(F)c5)c(Cl)c4)c3c2)o1 [Lapatinib] (partner 2 µM)
The procedure, abridged:
(§1)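 Nuclei were stained with Hoechst during a one-step fixation (final 0.05% Triton X-100, 1% formaldehyde, 1 ug/ml Hoechst) carried out 5 days after dosing, then counted on 4× images. The cells, lung cancer lines in 1536-well plates, had been dosed by pin tool the day after seeding with one drug alone or a fixed anchor-drug dose plus five library-drug doses (not always all listed) in √10 steps. Relative viability is the nuclei count in treated wells divided by that in vehicle wells, and each value is the median of duplicate plates.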

Compound in test [2]: N[C@@H]1CCCN(c2c(/C=C3\SC(=O)NC3=O)cccc2-c2ccccc2)C1 [AZD1208] + C[C@@H](Oc1cc(-c2cnn(C3CCNCC3)c2)cnc1N)c1c(Cl)ccc(F)c1Cl [Crizotinib] (partner 1 µM)
The procedure, abridged: as §1

Compound in test [3]: N[C@@H]1CCCN(c2c(/C=C3\SC(=O)NC3=O)cccc2-c2ccccc2)C1 [AZD1208] + Nc1ncn([C@H]2C[C@H](O)[C@@H](CO)O2)c(=O)n1 [Decitabine] (partner 2 µM)
The method in brief:
as §1

Compound in test [4]: N[C@@H]1CCCN(c2c(/C=C3\SC(=O)NC3=O)cccc2-c2ccccc2)C1 [AZD1208] + O=C(c1cc(Cc2n[nH]c(=O)c3ccccc23)ccc1F)N1CCN(C(=O)C2CC2)CC1 [Olaparib] (partner 8 µM)
The procedure, abridged: as §1

Regarding PC-3 [JPC-3], the relative viability in test [1] (first compound 0.08 µM) is 0.491; in test [1] (first compound 0.8 µM), 0.443; in test [1] (first compound 2.53 µM), 0.41; in test [1] (first compound 8 µM), 0.387; in test [2] (first compound 0.08 µM), 1.01; in test [2] (first compound 0.253 µM), 0.996. For the same cell line, the relative viability in test [2] (first compound 0.8 µM) was found to be 1.04; in test [2] (first compound 2.53 µM), 1.05; in test [2] (first compound 8 µM), 0.982; in test [3] (first compound 0.08 µM), 0.81; in test [3] (first compound 0.253 µM) it was 0.932; in test [3] (first compound 0.8 µM), 0.751. Moreover, the relative viability in test [3] (first compound 2.53 µM) came to 0.887; in test [3] (first compound 8 µM), 0.81; in test [4] (first compound 0.08 µM) it was 1.17; in test [4] (first compound 0.253 µM) it was 1.31; in test [4] (first compound 0.8 µM), 1.1; in test [4] (first compound 2.53 µM), 1.2. In addition, the relative viability in test [4] (first compound 8 µM) stood at 1.19.

As to PC-14, the relative viability in test [1] (first compound 0.08 µM) came out at 0.328; in test [1] (first compound 0.8 µM), 0.303; in test [1] (first compound 2.53 µM) it was 0.262; in test [1] (first compound 8 µM), 0.216; in test [2] (first compound 0.08 µM), 0.925; in test [2] (first compound 0.253 µM) it was 1.02. The relative viability in test [2] (first compound 0.8 µM) stood at 0.991; in test [2] (first compound 2.53 µM), 0.923; in test [2] (first compound 8 µM), 0.906; in test [3] (first compound 0.08 µM), 0.254; in test [3] (first compound 0.253 µM), 0.209; in test [3] (first compound 0.8 µM), 0.224. Besides, the relative viability stood at 0.203 in test [3] (first compound 2.53 µM); 0.207 in test [3] (first compound 8 µM); 0.381 in test [4] (first compound 0.08 µM); 0.248 in test [4] (first compound 0.253 µM); 0.27 in test [4] (first compound 0.8 µM); 0.365 in test [4] (first compound 2.53 µM). Further, the relative viability in test [4] (first compound 8 µM) was 0.257.

RERF-LC-KJ: the relative viability turned out to be 0.849 in test [1] (first compound 0.08 µM); 0.837 in test [1] (first compound 0.8 µM); 0.799 in test [1] (first compound 2.53 µM); 0.829 in test [1] (first compound 8 µM); 0.868 in test [2] (first compound 0.08 µM); 0.863 in test [2] (first compound 0.253 µM). Besides, the relative viability came out at 0.835 in test [2] (first compound 0.8 µM); 0.791 in test [2] (first compound 2.53 µM); 0.792 in test [2] (first compound 8 µM); 0.66 in test [3] (first compound 0.08 µM); 0.674 in test [3] (first compound 0.253 µM); 0.632 in test [3] (first compound 0.8 µM). The relative viability worked out at 0.586 in test [3] (first compound 2.53 µM); 0.555 in test [3] (first compound 8 µM); 0.826 in test [4] (first compound 0.08 µM); 0.965 in test [4] (first compound 0.253 µM); 0.857 in test [4] (first compound 0.8 µM); 0.825 in test [4] (first compound 2.53 µM). Also, the relative viability in test [4] (first compound 8 µM) was 0.673.

For the cell line SK-LU-1, the relative viability in test [1] (first compound 0.08 µM) was 0.969; in test [1] (first compound 0.8 µM), 0.841; in test [1] (first compound 2.53 µM) it was 0.74; in test [1] (first compound 8 µM), 0.565; in test [2] (first compound 0.08 µM), 0.991; in test [2] (first compound 0.253 µM), 1.16. The relative viability in test [2] (first compound 0.8 µM) is 0.882; in test [2] (first compound 2.53 µM), 0.819; in test [2] (first compound 8 µM) it was 0.674; in test [3] (first compound 0.08 µM), 0.586; in test [3] (first compound 0.253 µM) it was 0.621; in test [3] (first compound 0.8 µM) it was 0.629. Also, the relative viability in test [3] (first compound 2.53 µM) was determined as 0.622; in test [3] (first compound 8 µM) it was 0.511; in test [4] (first compound 0.08 µM) it was 0.446; in test [4] (first compound 0.253 µM), 0.419; in test [4] (first compound 0.8 µM) it was 0.367; in test [4] (first compound 2.53 µM), 0.448. Further, the relative viability in test [4] (first compound 8 µM) came out at 0.436.

As for SK-MES-1, the relative viability is 0.416 in test [1] (first compound 0.08 µM); 0.46 in test [1] (first compound 0.8 µM); 0.432 in test [1] (first compound 2.53 µM); 0.403 in test [1] (first compound 8 µM); 1.07 in test [2] (first compound 0.08 µM); 0.944 in test [2] (first compound 0.253 µM). The relative viability in test [2] (first compound 0.8 µM) was found to be 0.909; in test [2] (first compound 2.53 µM) it was 0.974; in test [2] (first compound 8 µM), 0.78; in test [3] (first compound 0.08 µM), 0.373; in test [3] (first compound 0.253 µM) it was 0.352; in test [3] (first compound 0.8 µM) it was 0.33. For the same cell line, the relative viability in test [3] (first compound 2.53 µM) is 0.364; in test [3] (first compound 8 µM) it was 0.301; in test [4] (first compound 0.08 µM), 0.697; in test [4] (first compound 0.253 µM), 0.715; in test [4] (first compound 0.8 µM), 0.672; in test [4] (first compound 2.53 µM), 0.653. Besides, in test [4] (first compound 8 µM), the relative viability was 0.577.

On to SW 1573, for which the relative viability amounted to 1.06 in test [1] (first compound 0.08 µM); 1.17 in test [1] (first compound 0.8 µM); 1.21 in test [1] (first compound 2.53 µM); 0.985 in test [1] (first compound 8 µM); 0.686 in test [2] (first compound 0.08 µM); 0.674 in test [2] (first compound 0.253 µM). The relative viability turned out to be 0.686 in test [2] (first compound 0.8 µM); 0.607 in test [2] (first compound 2.53 µM); 0.591 in test [2] (first compound 8 µM); 0.465 in test [3] (first compound 0.08 µM); 0.417 in test [3] (first compound 0.253 µM); 0.457 in test [3] (first compound 0.8 µM). The relative viability was 0.448 in test [3] (first compound 2.53 µM); 0.354 in test [3] (first compound 8 µM); 0.417 in test [4] (first compound 0.08 µM); 0.499 in test [4] (first compound 0.253 µM); 0.336 in test [4] (first compound 0.8 µM); 0.445 in test [4] (first compound 2.53 µM). Moreover, the relative viability in test [4] (first compound 8 µM) was 0.406.

As for UMC-11, the relative viability in test [1] (first compound 0.08 µM) came out at 1.13; in test [1] (first compound 0.8 µM), 0.969; in test [1] (first compound 2.53 µM) it was 0.974; in test [1] (first compound 8 µM), 0.744; in test [2] (first compound 0.08 µM) it was 0.553; in test [2] (first compound 0.253 µM) it was 0.502. Besides, the relative viability in test [2] (first compound 0.8 µM) came to 0.426; in test [2] (first compound 2.53 µM), 0.426; in test [2] (first compound 8 µM), 0.275; in test [3] (first compound 0.08 µM), 0.478; in test [3] (first compound 0.253 µM), 0.513; in test [3] (first compound 0.8 µM), 0.49. Further, the relative viability was found to be 0.515 in test [3] (first compound 2.53 µM); 0.383 in test [3] (first compound 8 µM); 0.27 in test [4] (first compound 0.08 µM); 0.374 in test [4] (first compound 0.253 µM); 0.333 in test [4] (first compound 0.8 µM); 0.309 in test [4] (first compound 2.53 µM). In addition, the relative viability in test [4] (first compound 8 µM) was 0.264.

The values are drawn from the supplement of paper PMC10307832.
